Reference: US20250228865A1, “COMPOUNDS FOR ENHANCING READ THROUGH OF GENES CONTAINING PREMATURE TERMINATION CODONS AND METHODS FOR MAKING AND USING THE SAME” (Sanofi US Services Inc., priority 2022, published 2025)

What was measured:
[1] = test system: recombinant human CFTR carrying the premature stop codon (PTC) mutation R1162X; assay: CFTR-PTC mutant translation readthrough, Nanoluc tagged CFTR luminescence (R1162X cell line); type: cell-based; conditions: for CFTR R1162X ACTIVITY Fold 10 μM G-418: fold over 10 μM G-418, in combination with G418; for EC50: in combination with G418, 16HBE cells, read-out: CFTR R1162X ACTIVITY EC50
Summary of the method: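 16HBE cells stably expressing Nanoluc-tagged human CFTR with G542X or R1162X, in medium with 3 μM VX-809, treated 48 h at 37 °C with compound (10-point, 2-fold, top 50 μM final) alone or with 10 μM G418. Live-cell Nanoluc luminescence normalised to a maximally effective G418 (125-250 μM).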

[2] = test system: recombinant human CFTR carrying the premature stop codon (PTC) mutation G542X; assay: CFTR-PTC mutant translation readthrough, Nanoluc tagged CFTR luminescence (G542X cell line); type: cell-based; conditions: in combination with G418, G542X cell line; for CFTR G542X ACTIVITY Fold 10 μM G-418: fold over 10 μM G-418; for EC50: 16HBE cells
Description: 16HBE human bronchial epithelial cells (stably over-expressing recombinant human CFTR carrying the premature stop codon (PTC) mutation G542X or R1162X along with a Nanoluc tag incorporated into the CFTR channel within extracellular loop 4 in G542X cell line or C-terminus end in the R1162X cell line were seeded at 0.01×10^6 cells/well and grown in Minimal Essential Medium (MEM) as monolayers in 384 well plates and incubated at 37° C. with 5% CO2. Media was changed every other day until day of experiment. Agents to be evaluated were made up in separate 384 well, polypropylene plates at a 2X the final desired test concentration. Test agent 10-point concentration response curves were constructed using the Labcyte Echo 555 acoustic dispenser. Test agents were typically tested at a max final test concentrations of 50 μM with sequential 2-fold lower concentrations below this in the absence or presence of a fixed 10 μM concentration of the aminoglycoside G418 made up in MEM growth media (reduced Serum Media+HEPES Buffer+2.4 g/L Sodium Bicarbonate+L-Glutamine containing CFTR corrector VX-809 (3 μM)). Treatment with 10 μM G418 alone produced approximately 10% of the response observed with a maximally effective concentration of G418 (typically 125-250 μM). Test agent effects in presence of 10 μM G418 were compared to control wells on the plate containing a maximally effective concentration of G418 (typically 125-250 μM) made up in the same media. 25 ul of test agents/control solutions were transferred from the compound plate to the cell plate, which already contained 25 ul/well of cell plating media, using an Integra Viaflo 384. Cell plates were incubated with the compounds for 48 hours, at which time they were processed using Nanoluc luminescence Kit (Promega Nano-Glo Live Cell Assay System) to measure CFTR-PTC mutant translation readthrough. Luminescence was measured as follows. Cell plates were removed from the incubator and allowed to equilibrate to room temperature for 20 minutes. Media was removed from all wells and the plates were blotted to remove excess remaining volume. Nano-Glo Live Cell Substrate was diluted 1:20 in the appropriate amount of Nano-Glo LCS Dilution Buffer to accommodate the number of cell plates being tested. The substrate/dilution buffer mix was then diluted 1:3 with MEM media to make the appropriate volume for the number of plates being tested. The substrate/dilution buffer/OptiMEM mix was added across the Nanoluc testing cell plates and the plates were read for luminescence signal immediately. Test agent effects on CFTR translation readthrough was determined by normalizing any observed increase in luminescence induced by 48 hours pretreatment with test compound to the magnitude of luminescence increase produced by pretreatment with a maximally effective concentration of the reference readthrough enhancing agent G418 (125-250 μM).

Row | Compound | CFTR R1162X ACTIVITY Fold 10 μM G-418 [1] | EC50 [1] [µM] | CFTR G542X ACTIVITY Fold 10 μM G-418 [2] | EC50 [2] [µM]
1 | O=C1N[C@H](CO)C(=O)N1c1ccc(OCc2c(Cl)cccc2Cl)cn1 | B′ (B′ = ≥5X to <10X) | > 10 | A′ (A′ = ≥10X) | > 10
2 | Cc1cccc(C(F)(F)F)c1COc1cnc(-c2cc(CO)on2)nc1 | A′ (A′ = ≥10X) | 1 to 10 | A′ (A′ = ≥10X) | < 1
3 | Cc1cccc(C(F)(F)F)c1COc1cnc(N2CCN(CCOCCO)CC2)nc1 | A′ (A′ = ≥10X) | 1 to 10 | A′ (A′ = ≥10X) | 1 to 10
4 | FC(F)(F)c1cccc(Cl)c1COc1cnc(-n2ncc(-c3ccccn3)n2)nc1 | A′ (A′ = ≥10X) | < 1 | A′ (A′ = ≥10X) | < 1
5 | NC(=O)c1ccn(-c2ncc(OCc3c(Cl)cccc3Cl)cn2)n1 [1-[5-[(2,6-dichlorophenyl)methoxy]pyrimidin-2-yl]pyrazole-3-carboxamide] | B′ (B′ = ≥5X to <10X) | < 1 | A′ (A′ = ≥10X) | < 1
6 | OCC1CN(c2ccc(OCc3c(Cl)cccc3Cl)cn2)CCO1 (stereo not drawn) [[4-[5-[(2,6-dichlorophenyl)methoxy]-2-pyridyl]morpholin-2-yl]methanol] | A′ (A′ = ≥10X) | 1 to 10 | A′ (A′ = ≥10X) | 1 to 10
7 | Cc1cccc(C(F)(F)F)c1COc1cnc(-n2cc(-c3ccccn3)nn2)nc1 | B′ (B′ = ≥5X to <10X) | < 1 | A′ (A′ = ≥10X) | < 1
8 | Cc1cccc(C(F)(F)F)c1COc1cnc(N2CC[C@H](C(N)=O)C2)nc1 | A′ (A′ = ≥10X) | 1 to 10 | A′ (A′ = ≥10X) | 1 to 10
9 | O=C1CN(c2ncc(OCc3c(Cl)cccc3C(F)(F)F)cn2)CC(CO)N1 (stereo not drawn) | A′ (A′ = ≥10X) | 1 to 10 | A′ (A′ = ≥10X) | 1 to 10
10 | NC(=O)C1CN(c2ncc(OCc3c(Cl)cccc3C(F)(F)F)cn2)CC(=O)N1 (stereo not drawn) | C′ (C′ = <5X) | 1 to 10 | C′ (C′ = <5X) | 1 to 10
11 | O=C1OCC(CO)=C1c1ccc(OCc2c(Cl)cccc2Cl)cc1 [4-[4-[(2,6-dichlorophenyl)methoxy]phenyl]-3-(hydroxymethyl)-2H-furan-5-one] | B′ (B′ = ≥5X to <10X) | 1 to 10 | B′ (B′ = ≥5X to <10X) | 1 to 10
12 | O=C(O)C1CCN(c2ncc(OCc3c(Cl)cccc3C(F)(F)F)cn2)C1 (stereo not drawn) | B′ (B′ = ≥5X to <10X) | 1 to 10 | A′ (A′ = ≥10X) | 1 to 10
13 | NC(=O)C1CN(c2ncc(OCc3c(Cl)cccc3Cl)cn2)C1 [1-[5-[(2,6-dichlorophenyl)methoxy]pyrimidin-2-yl]azetidine-3-carboxamide] | A′ (A′ = ≥10X) | 1 to 10 | B′ (B′ = ≥5X to <10X) | 1 to 10
14 | Clc1cccc(Cl)c1COc1cnc(-n2cc(-c3ccccn3)nn2)nc1 [5-[(2,6-dichlorophenyl)methoxy]-2-[4-(2-pyridyl)triazol-1-yl]pyrimidine] | A′ (A′ = ≥10X) | < 1 | A′ (A′ = ≥10X) | < 1
15 | Cc1cccc(C)c1COc1ccc(-n2ccc(CO)n2)nc1 [[1-[5-[(2,6-dimethylphenyl)methoxy]-2-pyridyl]pyrazol-3-yl]methanol] | A′ (A′ = ≥10X) | 1 to 10 | A′ (A′ = ≥10X) | 1 to 10
16 | OCc1cn(-c2ccc(OCc3cc(Cl)cc(Cl)c3)cc2)cn1 [[1-[4-[(3,5-dichlorophenyl)methoxy]phenyl]imidazol-4-yl]methanol] | C′ (C′ = <5X) | > 10 | – | 1 to 10
17 | Cc1cccc(C(F)(F)F)c1COc1cnc(N2CC(CO)OCC2=O)nc1 (stereo not drawn) | A′ (A′ = ≥10X) | 1 to 10 | A′ (A′ = ≥10X) | 1 to 10
18 | O=C(O)c1ncn(-c2ccc(OCc3c(Cl)cccc3C(F)(F)F)cn2)n1 [1-(5-{[2-chloro-6-(trifluoromethyl)phenyl]methoxy]pyridin-2-] | – | > 10 | C′ (C′ = <5X) | 1 to 10
19 | CC1(O)CCN(c2ncc(OCc3c(Cl)cccc3C(F)(F)F)cn2)CC1 | A′ (A′ = ≥10X) | < 1 | A′ (A′ = ≥10X) | < 1
20 | NC(=O)[C@@H]1CCN(c2ncc(OCc3c(Cl)cccc3C(F)(F)F)cn2)C1 | A′ (A′ = ≥10X) | 1 to 10 | A′ (A′ = ≥10X) | 1 to 10
21 | Cc1cccc(C(F)(F)F)c1COc1cnc(N2CCS(=O)(=O)C(CO)C2)nc1 (stereo not drawn) [[4-[5-[[2-methyl-6-(trifluoromethyl)phenyl]methoxy]pyrimidin] | A′ (A′ = ≥10X) | 1 to 10 | A′ (A′ = ≥10X) | 1 to 10
22 | CCc1cccc(C(F)(F)F)c1COc1cnc(-n2ccc(CO)n2)nc1 | A′ (A′ = ≥10X) | < 1 | A′ (A′ = ≥10X) | < 1
23 | O=C1CN(c2ncc(OCc3c(Cl)cccc3Cl)cn2)CC(CO)N1 (stereo not drawn) | A′ (A′ = ≥10X) | 1 to 10 | A′ (A′ = ≥10X) | 1 to 10
24 | Clc1cccc(Cl)c1COc1cnc(N2C[C@H]3COC[C@H]3C2)nc1 | A′ (A′ = ≥10X) | 1 to 10 | A′ (A′ = ≥10X) | 1 to 10
25 | OCc1ncn(-c2ccc(OCc3c(Cl)cccc3C(F)(F)F)cc2)n1 | A′ (A′ = ≥10X) | 1 to 10 | A′ (A′ = ≥10X) | < 1
26 | O=C(O)C1CN(c2ccc(OCc3c(Cl)cccc3C(F)(F)F)cn2)CCO1 (stereo not drawn) | C′ (C′ = <5X) | > 10 | C′ (C′ = <5X) | 1 to 10
